Assay results from patent publication US20240002441A1, “PEPTIDES AND USES THEREOF IN MODULATION OF AMYLOID-BETA PROTEIN DEGRADING PROTEASES” (priority 2020, published 2024).

Tests used:
Type in all cases: biochemical
MMP-2 = target: T1, MMP-2 (Homo sapiens, UniProt P08253); test: QFS assay of Aβ-degrading enzymes: MMP-2 (Example 6); details: MMP2 0.50 ng/μL activated with p-aminophenylmercuric acetate
T1 construct: purchased Sigma Aldrich SRP6270-10UG
T1 sequence (P08253 110-660): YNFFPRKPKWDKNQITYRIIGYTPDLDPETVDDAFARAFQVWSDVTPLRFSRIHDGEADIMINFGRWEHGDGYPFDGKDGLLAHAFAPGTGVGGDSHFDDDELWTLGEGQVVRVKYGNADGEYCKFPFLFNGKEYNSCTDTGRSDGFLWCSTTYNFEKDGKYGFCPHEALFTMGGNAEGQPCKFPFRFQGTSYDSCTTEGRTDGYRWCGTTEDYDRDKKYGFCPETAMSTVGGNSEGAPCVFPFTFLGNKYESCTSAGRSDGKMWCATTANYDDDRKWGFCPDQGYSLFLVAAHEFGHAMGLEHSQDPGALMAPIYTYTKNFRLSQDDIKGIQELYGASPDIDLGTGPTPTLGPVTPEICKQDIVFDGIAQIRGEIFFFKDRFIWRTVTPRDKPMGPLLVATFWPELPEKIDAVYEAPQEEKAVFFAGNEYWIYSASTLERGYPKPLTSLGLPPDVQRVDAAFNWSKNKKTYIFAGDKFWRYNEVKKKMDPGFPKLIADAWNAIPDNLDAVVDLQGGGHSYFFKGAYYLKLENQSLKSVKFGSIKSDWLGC
Description: (§1) Plate reader-based enzyme assays were performed using a quenched fluorescent substrate (QFS) in a 96-well format using a SpectraMAX M4 Microplate reader (Molecular Devices). The increase in fluorescence following addition of QFS (40 μM) was taken as evidence of enzyme activity. Fluorescence was monitored over 2 h at 37° C. using κEx=320 nm and λEm=405 nm. Assays were conducted in black 96-well plates. Specific enzyme activity was expressed as a rate of substrate cleavage calculated using a standard curve of 7-methoxy-coumarin-4-acetic acid.
(§2) In all plate reader-based enzyme assays using QFS, the reaction rate (μmol of substrate cleaved/min) was calculated using linear regression analysis (GraphPad Prism software version 8.01). The reaction rates calculated were used to generate the enzyme kinetic parameters Vmax and Km through non-linear regression analysis (GraphPad Prism software, version 8.01; Michaelis-Menten equation). Where indicated, enzyme activity in the presence of peptide was expressed as a % of the enzyme alone. Data were expressed as mean±SEM and statistical significance was determined using t-tests or one-way ANOVAs followed by Tukey's post-hoc test. P<0.05 was considered as statistically significant. […]
SEQ ID NO:2 was assessed in a QFS assay against enzymes NEP, ECE1, ECE2, ACE1, ACE2, IDE and MMP-2 using the method in Example 2 and the following procedure. […]

ACE2 = target: T2, ACE2 (Homo sapiens, UniProt Q9BYF1); test: ACE2 enzyme kinetics study with QFS (Example 5); details: rhACE2 0.1 ng/μL, ACE2 QFS 0-100 μM; pre-incubation 1 h at 37° C.
T2 construct: purchased R & D systems 933-ZN-010
Description: as §1
as §2, with “significant. In all assays conducted using 96-well plates, the reaction mixtures in each well were considered an independent experiment.” for “significant.”

NEP = target: T3, NEP (Homo sapiens, UniProt P08473); test: Cleavage of synthetic Aβ42 by NEP, LCMS (Example 7); details: NEP 0.15 ng/μL, peptide 9 μM, Aβ42 0.05 μg/μL
T3 construct: purchased R & D systems 1182-ZNC-010
Description: Synthetic Aβ40 (0.10 μg/μL) was added to a reaction mixture containing NEP (0.05 ng/μL) pre-incubated with SEQ ID NO:2 or scrambled control (9 μM) for 1 h at 37° C. Synthetic Aβ42 (0.05 μg/μL) was added to a reaction mixture containing NEP (0.15 ng/μL) preincubated with either scrambled control or SEQ ID NO:2 (9 μM) for 1 h at 37° C. Samples containing enzyme alone had only NEP buffer (Table 2). The cleavage reaction was allowed to continue in a thermomixer at 37° C. Aliquots of equal volume were taken over 24 h. Aliquots were immediately acidified with 0.1% trifluoroacetic acid (TFA) to terminate enzyme activity and snap frozen in dry ice. Samples were stored at −80° C. until analysed by LCMS.
Samples were analysed by LC-MS/MS using a quadrupole TOF mass spectrometer (MicroTOFq, Bruker Daltonics, Bremen, Germany) coupled online with a 1200 series nano-HPLC (Agilent technologies, Santa Clara, CA, USA). Samples were injected onto a zorbax 300SB reversed phase trap column with 95% solvent A (0.1% formic acid) at a flow rate of 10 μL/minute. The peptides were eluted over a 10-min gradient to 70% solvent B (80% acetonitrile, 0.1% formic acid) and separated on a 15-cm, 75-μmID zorbax 300SB nanocolumn. The eluent was nebulised and ionised using the Bruker nano-ESI source with a capillary voltage of 4500 V, dry gas at 180° C., flow rate of 5 L/minute and nebuliser gas pressure at 300 mbar. […]

T2 sequence (Q9BYF1 18-805): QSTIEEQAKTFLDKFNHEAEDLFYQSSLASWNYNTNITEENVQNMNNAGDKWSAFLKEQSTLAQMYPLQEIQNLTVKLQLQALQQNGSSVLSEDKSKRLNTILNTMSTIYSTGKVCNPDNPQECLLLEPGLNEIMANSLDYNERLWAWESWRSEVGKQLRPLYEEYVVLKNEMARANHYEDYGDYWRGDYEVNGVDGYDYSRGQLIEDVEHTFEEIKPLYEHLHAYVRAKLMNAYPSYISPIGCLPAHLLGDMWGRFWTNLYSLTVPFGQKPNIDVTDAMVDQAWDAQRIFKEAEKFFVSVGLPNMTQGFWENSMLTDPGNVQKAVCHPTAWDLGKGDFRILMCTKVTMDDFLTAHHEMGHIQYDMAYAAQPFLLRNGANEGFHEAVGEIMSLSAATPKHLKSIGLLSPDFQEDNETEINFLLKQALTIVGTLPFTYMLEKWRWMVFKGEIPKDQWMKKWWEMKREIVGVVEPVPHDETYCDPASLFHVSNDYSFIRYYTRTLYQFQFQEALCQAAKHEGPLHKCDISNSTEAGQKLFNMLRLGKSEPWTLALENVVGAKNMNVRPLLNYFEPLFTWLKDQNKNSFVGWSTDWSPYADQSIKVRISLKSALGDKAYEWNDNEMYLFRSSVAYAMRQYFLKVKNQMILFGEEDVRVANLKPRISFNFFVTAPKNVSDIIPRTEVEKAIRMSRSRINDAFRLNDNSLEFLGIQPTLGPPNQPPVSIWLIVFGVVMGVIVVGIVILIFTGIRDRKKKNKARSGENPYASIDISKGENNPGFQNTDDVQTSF
T3 sequence (P08473 whole entry): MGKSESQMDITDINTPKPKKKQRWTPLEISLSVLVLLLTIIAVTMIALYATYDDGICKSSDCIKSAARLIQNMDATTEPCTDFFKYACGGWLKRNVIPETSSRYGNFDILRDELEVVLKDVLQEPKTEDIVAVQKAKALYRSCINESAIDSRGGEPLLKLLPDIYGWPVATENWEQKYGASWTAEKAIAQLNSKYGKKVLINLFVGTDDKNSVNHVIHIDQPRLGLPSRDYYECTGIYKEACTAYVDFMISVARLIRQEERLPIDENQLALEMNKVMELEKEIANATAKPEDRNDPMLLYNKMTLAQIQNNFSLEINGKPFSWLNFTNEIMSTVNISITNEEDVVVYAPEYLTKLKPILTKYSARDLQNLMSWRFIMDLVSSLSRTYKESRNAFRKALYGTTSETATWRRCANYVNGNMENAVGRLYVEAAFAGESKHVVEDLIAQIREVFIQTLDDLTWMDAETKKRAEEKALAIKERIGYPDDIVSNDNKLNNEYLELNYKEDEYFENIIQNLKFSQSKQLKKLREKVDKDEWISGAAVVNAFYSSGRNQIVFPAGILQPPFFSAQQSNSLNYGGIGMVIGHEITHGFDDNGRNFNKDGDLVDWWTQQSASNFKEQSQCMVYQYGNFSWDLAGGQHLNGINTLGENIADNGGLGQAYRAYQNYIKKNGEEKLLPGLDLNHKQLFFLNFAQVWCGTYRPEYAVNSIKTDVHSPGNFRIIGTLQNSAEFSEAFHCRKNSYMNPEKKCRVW

Substance: H-SLFELGKMIL-NH2 [SEQ ID NO:2, H2N-SLFELGKMIL-NH2]
- activity of MMP-2 in the presence of peptide (MMP-2): 0.7±0.2 μmol of substrate cleaved
- effect on the activity of MMP-2 (MMP-2): did not affect
- vmax of rhACE2 in the presence of peptide (ACE2): 0.09±0.002 μmol substrate cleaved/min
- amount of cleavage products Aβ1-12, Aβ1-16 and Aβ1-21 formed from Aβ42 over 24 h, compared with scrambled control (NEP): significantly higher
